In patent publication US10765764B2, “Probes for imaging huntingtin protein” (CHDI Foundation, Inc., priority 2015, dated 2020):
pIC50: −log10 of the molar value.

Assays:
Aβ aggregates = target: T1, Aβ aggregates (Homo sapiens, UniProt P05067); assay: Autoradiography binding to Aβ aggregates in APP/PS1 mouse brain sections; details: 1 nM radioligand, 12-month old heterozygous APP/PS1 mouse brain, compared with wild-type littermate
T1 construct: from tissue; host or cells: brain sections of 12 month old heterozygous APP/PS1 mice
Excerpt: Generation of tritiated compound 1, Method 1, for autoradiography studies was achieved by treating phenolic Compound 2 of Method 2 with tritiated methyl nosylate and a suitable base in N,N-dimethylformamide Purification by HPLC gave the tritiated compound in high radiochemical purity.
Brains were extracted from 12 month old heterozygous APP/PS1 animals (J. Neurochemistry 2009, 108, 1177-1186) and quickly frozen on dry ice in small weigh boats, wrapped with tin foil and stored in zip-lock bags at −80° C. for sectioning. Using a Leica CM3050S cryostat, 20 μm thick sections were generated representing the hippocampus (Bregma −1.34/−3.80) and the cortex/striatum (Bregma 1.54/−0.94). […]
10-[^3H]-methoxy-N-(pyridin-3-yl)-7-thia-2,5-diazatricyclo[6.4.0.0^2,6]dodeca-1(12),3,5,8,10-pentaene-4-carboxamide binding was determined in brain sections of a 12 month old APP/PS1 mouse and a WT littermate. […] Non-specific binding was determined for each radioligand in the presence of 1 μM of respective, cold ligand equivalent. […]
Quantification and Analysis: Signal intensity (cpm/mm^2) was measured for each brain section using Beta Vision+software. Specific (displaceable) binding, expressed in cpm/mm^2, was defined by the difference between total and non-specific binding and calculated as follows: (Total non-specific)/Total×100%. […]

Q46 protein aggregates = target: T2, Q46 protein aggregates (Homo sapiens, UniProt P42858); assay: Q46 Radioligand Binding Assay (RBA), displacement of [^3H3]MK-3328; details: 10 nM [^3H3]MK-3328, 5 μM Q46 protein aggregates
T2 construct: fused on or other part: An N-terminal GST tag, cleaved off with thrombin before the assay to trigger aggregation
Protocol: For radioligand binding assays (RBA) GST-Q46 protein was generated based on a previous publication (Scherzinger et al. Cell, Vol. 90, 549-558, Aug. 8, 1997). For experiments 33 μM GST-Q46 was incubated with 150 μg/mL thrombin in assay buffer (150 mM NaCl, 50 mM Tris pH 8.0) and 2 mM CaCl2 for 16 hours at 37° C. Aggregated Q46 was pelleted by centrifugation for 5 minutes at 13,000 rpm in a bench top centrifuge and re-dissolved in the same volume of assay buffer. Test compounds were prepared by titration in DMSO at 11 concentrations from 33 μM to 1 nM. For the RBA, Q46 protein aggregates and test compounds were pre-incubated in assay buffer for 20 minutes at room temperature, in 140 μL/well in a 96-well plate (pp, round bottom). Then, ligand was added in 10 μL/well and incubated for 60 minutes at 37° C. Final assay concentrations were 1 μM to 30 pM test compound, 5 μM Q46 protein (equivalent monomer concentration) and 10 nM ligand [^3H3]MK-3328 (Harrision et al., ACS Med. Chem. Lett., 2 (2011), pp 498-502). Samples were transferred onto GF/B filter plates and washed 2× with 200 μL PBS using a Filtermate Harvester. After drying filter plates for 1 hour at 37° C., the back of the plates was sealed with foil and 30 μl/well scintillation fluid (Packard MicroScint 40) was added, incubated for incubated for 15 minutes in the dark and counted in a TopCount reader. For analysis, replicate data from independent assay plates were normalized towards 0% and 100% inhibition using control wells of vehicle (0% inhibition) and 3 μM unlabelled MK-3328 (100% inhibition). IC50 values were determined with a sigmoidal inhibition model with four variables (top, bottom, slope, IC50) in a global fit using the normalized replicate data.

mHTT aggregates = assay: Autoradiography of mHTT aggregates in R6/2 mouse brain; format: binding; details: 0.5 nM, 10 week old R6/2 mouse brain, compared with wild-type littermate
[1] = system: recombinant tau and amyloid β1-42 (Aβ1-42) aggregates; details: recombinant tau and Aβ1-42 aggregates; cited from earlier work
[2] = system: NFT in sections of AD brain tissue; details: in vitro autoradiography and fluorescent staining; cited from earlier work
[3] = system: zQ175 knock-in mice (cortex, hippocampus, striatum, cerebellum); assay: In vivo PET imaging in a knock-in model of Huntington's disease; parameters: species or system mouse; details: for % SUV: Mean ± SD
Protocol: ^11C-labeled Compound 1 of Method 1 was evaluated for its ability to penetrate the central nervous system of mice following systemic administration, and its binding to the cerebellum, striatum, hippocampus, and cortex was quantitated. Three groups of animals were compared: wild-type, and mice that were heterozygous or homozygous for the zQ175 knock-in allele. (Menalled L. B. et al. Comprehensive behavioral and molecular characterization of a new knock-in mouse model of Huntington's disease: zQ175. PloS One 2012, 7, e49838). Forty-eight nine months old animals (16 WT, 16 heterozygous and 16 homozygous zQ175) were obtained from The Jackson Laboratory, USA. The animals were housed at the animal department of Karolinska University Hospital in a temperature (±21° C.) and humidity (±40%) controlled environment on a 12 hour light/dark cycle (lights on 7:00 AM) with access to food and water ad libitum. Animals were allowed at least one week to habituate to the animal department before the start of the imaging sessions. All experiments were conducted during the light phase of the cycle.
Animals were anesthetized with inhalation of isoflurane (4-5% isoflurane in oxygen). After induction of anesthesia, the isoflurane concentration was lowered to 1.5-2% in 50/50 air/oxygen and the animals were positioned in the scanner in a designated mouse bed. A cannula was inserted in the tail vein through which the radioligand was administered. A 63-minute dynamic PET scan was initiated immediately upon intravenous injection of the radioligand. Upon completion of the imaging sessions, each animal was returned to its cage.
The acquired list mode data, was reconstructed into 25 timeframes (63 minute scan=4×10 s, 4×20 s, 4×60 s, 7×180 s, 6×360 s). The image reconstruction was made with a fully 3-dimensional maximum-likelihood expectation maximization algorithm (MLEM) with 20 iterations, without scatter and attenuation correction. The reconstructed dynamic PET images were co-registered to an inbuilt mouse MRI template available in PMOD, which also incorporates volumes of interest (VOI's) sets (PMOD Technologies Ltd., Zurich, Switzerland). With the help of these VOI sets, decay corrected time activity curves (TAC) were generated. The regional brain uptake values were expressed as percent standard uptake value (% SUV), which normalizes for injected radioactivity and body weight. In addition, the area under the curve (AUC) was calculated. The selected regions of interest (ROI) were: cortex, hippocampus, striatum and cerebellum.
The average % SUV and AUC values for the ^11C-labeled Compound 1 of Method 1 in the four brain regions, for the three groups of mice, are shown in Table 23. […] FIG. 3 presents the AUC values for the three groups of animals in the four regions of the brain.

T2 sequence (P42858 with tags, fused parts or gaps with the stated changes, form open): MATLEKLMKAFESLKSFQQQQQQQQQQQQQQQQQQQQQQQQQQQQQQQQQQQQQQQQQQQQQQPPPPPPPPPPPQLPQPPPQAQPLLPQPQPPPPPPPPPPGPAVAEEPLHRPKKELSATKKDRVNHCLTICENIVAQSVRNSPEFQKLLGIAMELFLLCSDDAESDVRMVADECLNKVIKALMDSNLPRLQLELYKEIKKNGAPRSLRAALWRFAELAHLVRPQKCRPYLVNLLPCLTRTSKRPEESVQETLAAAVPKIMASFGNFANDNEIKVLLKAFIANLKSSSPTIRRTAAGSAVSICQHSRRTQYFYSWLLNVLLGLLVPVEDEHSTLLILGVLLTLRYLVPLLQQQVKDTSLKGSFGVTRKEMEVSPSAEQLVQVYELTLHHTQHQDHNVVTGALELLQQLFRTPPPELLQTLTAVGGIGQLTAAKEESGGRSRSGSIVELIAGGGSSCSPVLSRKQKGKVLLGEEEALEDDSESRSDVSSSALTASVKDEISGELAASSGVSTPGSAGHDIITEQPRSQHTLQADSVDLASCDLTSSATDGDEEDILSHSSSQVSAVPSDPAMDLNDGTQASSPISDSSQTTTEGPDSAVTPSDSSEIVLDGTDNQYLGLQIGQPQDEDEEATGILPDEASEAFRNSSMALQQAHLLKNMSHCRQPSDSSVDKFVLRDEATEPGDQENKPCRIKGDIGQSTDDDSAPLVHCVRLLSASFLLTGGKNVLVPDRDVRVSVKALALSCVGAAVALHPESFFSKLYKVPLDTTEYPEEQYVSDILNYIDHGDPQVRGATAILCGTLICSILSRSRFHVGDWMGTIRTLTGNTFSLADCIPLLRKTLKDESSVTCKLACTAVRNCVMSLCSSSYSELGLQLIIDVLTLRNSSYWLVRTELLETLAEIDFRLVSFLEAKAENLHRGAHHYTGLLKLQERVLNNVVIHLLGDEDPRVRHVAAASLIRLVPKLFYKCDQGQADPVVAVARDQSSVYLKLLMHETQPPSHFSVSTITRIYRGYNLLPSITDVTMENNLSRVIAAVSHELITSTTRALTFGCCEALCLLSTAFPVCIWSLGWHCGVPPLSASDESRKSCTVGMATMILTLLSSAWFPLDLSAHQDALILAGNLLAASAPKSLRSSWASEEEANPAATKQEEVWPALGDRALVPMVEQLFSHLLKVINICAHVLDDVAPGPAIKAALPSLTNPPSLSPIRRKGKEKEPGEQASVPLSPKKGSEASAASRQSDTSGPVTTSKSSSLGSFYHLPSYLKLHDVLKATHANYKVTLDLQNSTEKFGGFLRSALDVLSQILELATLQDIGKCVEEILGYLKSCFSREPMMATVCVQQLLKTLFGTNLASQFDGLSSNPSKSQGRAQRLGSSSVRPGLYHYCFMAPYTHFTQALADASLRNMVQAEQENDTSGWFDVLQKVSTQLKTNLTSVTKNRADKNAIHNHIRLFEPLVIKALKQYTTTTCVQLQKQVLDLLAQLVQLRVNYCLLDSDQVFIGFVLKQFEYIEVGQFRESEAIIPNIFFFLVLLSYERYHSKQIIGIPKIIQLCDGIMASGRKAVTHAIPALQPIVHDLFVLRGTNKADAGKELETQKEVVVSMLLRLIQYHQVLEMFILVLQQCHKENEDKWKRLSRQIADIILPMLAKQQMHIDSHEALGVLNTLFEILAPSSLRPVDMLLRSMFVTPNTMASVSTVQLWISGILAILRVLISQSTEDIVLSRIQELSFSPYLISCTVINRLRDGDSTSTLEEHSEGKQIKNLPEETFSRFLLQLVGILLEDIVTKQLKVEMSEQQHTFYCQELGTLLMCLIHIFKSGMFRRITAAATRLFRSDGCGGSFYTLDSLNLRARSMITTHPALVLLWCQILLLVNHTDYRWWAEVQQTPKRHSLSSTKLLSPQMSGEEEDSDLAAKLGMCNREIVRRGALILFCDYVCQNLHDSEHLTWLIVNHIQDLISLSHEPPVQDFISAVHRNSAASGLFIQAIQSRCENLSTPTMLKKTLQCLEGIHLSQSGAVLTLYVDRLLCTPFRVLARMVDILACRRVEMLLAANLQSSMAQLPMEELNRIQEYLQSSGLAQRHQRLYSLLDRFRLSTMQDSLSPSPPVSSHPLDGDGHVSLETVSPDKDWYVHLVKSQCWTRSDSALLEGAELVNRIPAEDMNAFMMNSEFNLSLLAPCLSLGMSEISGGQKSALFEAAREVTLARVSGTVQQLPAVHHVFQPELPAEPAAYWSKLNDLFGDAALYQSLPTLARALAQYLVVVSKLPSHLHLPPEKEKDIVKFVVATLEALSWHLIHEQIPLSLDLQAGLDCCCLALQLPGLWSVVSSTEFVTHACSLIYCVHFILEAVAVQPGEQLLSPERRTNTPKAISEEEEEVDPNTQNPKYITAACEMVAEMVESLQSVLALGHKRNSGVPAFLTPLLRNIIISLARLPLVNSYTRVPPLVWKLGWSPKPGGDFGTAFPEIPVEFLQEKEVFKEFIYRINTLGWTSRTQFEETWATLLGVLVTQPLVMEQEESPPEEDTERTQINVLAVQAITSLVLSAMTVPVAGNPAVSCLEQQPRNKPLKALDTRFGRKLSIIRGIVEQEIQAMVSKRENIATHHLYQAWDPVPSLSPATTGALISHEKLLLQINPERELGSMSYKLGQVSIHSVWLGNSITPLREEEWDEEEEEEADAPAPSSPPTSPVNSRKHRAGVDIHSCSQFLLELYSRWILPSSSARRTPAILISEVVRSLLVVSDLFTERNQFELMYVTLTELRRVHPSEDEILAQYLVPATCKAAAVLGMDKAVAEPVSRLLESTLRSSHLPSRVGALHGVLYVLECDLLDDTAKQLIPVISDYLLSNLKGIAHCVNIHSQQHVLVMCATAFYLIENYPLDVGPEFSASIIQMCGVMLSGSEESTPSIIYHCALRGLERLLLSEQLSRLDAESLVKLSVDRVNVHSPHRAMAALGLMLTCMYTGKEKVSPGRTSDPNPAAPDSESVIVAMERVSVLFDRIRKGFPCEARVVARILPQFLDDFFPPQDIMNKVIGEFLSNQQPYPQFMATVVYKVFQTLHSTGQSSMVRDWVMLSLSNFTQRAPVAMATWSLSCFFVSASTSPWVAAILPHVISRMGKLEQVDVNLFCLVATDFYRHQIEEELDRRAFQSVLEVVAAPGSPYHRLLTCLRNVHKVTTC
T1 sequence (P05067 672-713 limits assumed): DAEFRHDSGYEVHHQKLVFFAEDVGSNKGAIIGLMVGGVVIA

Structure (SMILES): [3H]C([3H])([3H])Oc1ccc2c(c1)sc1nc(C(=O)Nc3cccnc3)cn12 [10-[^3H]-methoxy-N-(pyridin-3-yl)-7-thia-2,5-diazatricyclo[6.4.0.0^2,6]dodeca-1(12),3,5,8,10-pentaene-4-carboxamide]
- visibility of Aβ aggregates in brain sections (Aβ aggregates): Aβ aggregates are visible

Structure (SMILES): COc1ccc2c(c1)sc1nc(C(=O)Nc3ccc(=O)n(C)n3)cn12 [10-methoxy-N-(1-methyl-6-oxo-1,6-dihydropyridazin-3-yl)-7-thia-2,5-diazatricyclo[6.4.0.0^2,6]dodeca-1(12),3,5,8,10-pentaene-4-carboxamide]
- pIC50 (Q46 protein aggregates): > 7.00
- visibility of mHTT aggregates in brain sections (mHTT aggregates): mHTT aggregates are visible

Structure (SMILES): COc1ccc2c(c1)sc1nc(C(=O)Nc3ccc(-n4ccnc4)nc3)cn12 [N-[6-(1H-imidazol-1-yl)pyridin-3-yl]-10-methoxy-7-thia-2,5-diazatricyclo[6.4.0.0^2,6]dodeca-1(12),3,5,8,10-pentaene-4-carboxamide]
- pIC50 (Q46 protein aggregates): > 7.00

Structure (SMILES): COCCOc1ccc(NC(=O)c2ccn3c(n2)nc2ccccc23)cn1 [N-[6-(2-methoxyethoxy)pyridin-3-yl]-1,8,10-triazatricyclo[7.4.0.0^2,7]trideca-2(7),3,5,8,10,12-hexaene-11-carboxamide]
- pIC50 (Q46 protein aggregates): > 7.00

Structure (SMILES): CNC(=O)c1ccc(NC(=O)c2ccn3c(n2)nc2ccccc23)cn1 [N-[6-(methylcarbamoyl)pyridin-3-yl]-1,8,10-triazatricyclo[7.4.0.0^2,7]trideca-2(7),3,5,8,10,12-hexaene-11-carboxamide]
- pIC50 (Q46 protein aggregates): > 7.00

Structure (SMILES): CN(C)c1ccc(/C=C/c2nc3ccc(I)cc3[nH]2)cc1 [SBIM-3, 4-[(E)-2-(6-iodo-1H-benzimidazol-2-yl)ethenyl]-N,N-dimethylaniline]
- ratio of Kd values (affinity for tau aggregates vs Aβ1-42 aggregates) [1]: 2.73
- binding to NFT in sections of AD brain tissue [2]: bound NFT

Structure (SMILES): [11CH3]Oc1ccc2c(c1)sc1nc(C(=O)Nc3cccnc3)cn12 [^11C-labeled Compound 1 of Method 1, 10-[^11C]-methoxy-N-(pyridin-3-yl)-7-thia-2,5-diazatricyclo[6.4.0.0^2,6]dodeca-1(12),3,5,8,10-pentaene-4-carboxamide]
- % SUV ([3]; Cerebellum, WT mice (n = 7)): 74.1 ± 7.1 % SUV
- % SUV ([3]; Cerebellum, het zQ175 mice (n = 6)): 80.5 ± 6.5 % SUV
- % SUV ([3]; Cerebellum, hom zQ175 mice (n = 8)): 92.3 ± 11.3 % SUV
- % SUV ([3]; Cortex, WT mice (n = 7)): 67.1 ± 5.7 % SUV
- % SUV ([3]; Cortex, het zQ175 mice (n = 6)): 73.4 ± 5.1 % SUV
- % SUV ([3]; Cortex, hom zQ175 mice (n = 8)): 93.1 ± 9.6 % SUV
- % SUV ([3]; Hippocampus, WT mice (n = 7)): 73.3 ± 6.5 % SUV
- % SUV ([3]; Hippocampus, het zQ175 mice (n = 6)): 82.0 ± 6.3 % SUV
- % SUV ([3]; Hippocampus, hom zQ175 mice (n = 8)): 107.1 ± 10.8 % SUV
- % SUV ([3]; Striatum, WT mice (n = 7)): 71.9 ± 6.7 % SUV
- % SUV ([3]; Striatum, het zQ175 mice (n = 6)): 82.7 ± 7.0 % SUV
- % SUV ([3]; Striatum, hom zQ175 mice (n = 8)): 107.6 ± 9.6 % SUV
- binding of the radioligand relative to wild type ([3]; all four brain regions, mice homozygous for the zQ175 allele): Increased binding of the radioligand, relative to wild type
